Assay results published in patent publication US8796289B2 (AbbVie Inc., priority 2011, dated 2014).

molecular target: GST-tagged-Wee1 kinase (Homo sapiens, UniProt P30291); assay: Wee1 time-resolved fluorescence equilibrium binding assay (displacement of Oregon Green-labeled ATP-competitive kinase probe)
Experimental: Wee1 kinase was assayed using a time-resolved fluorescence equilibrium binding assay monitoring displacement of a rapidly reversible Oregon Green-labeled ATP-competitive kinase probe (N-(2-(2-(2-(4-(4-(5-chloro-4-(2-(1-hydroxycyclobutyl)thiazol-5-yl)-1H-pyrrolo[2,3-b]pyridin-2-yl)phenyl)piperazin-1-yl)ethoxy)ethoxy)ethyl)-2′,7′-difluoro-3′,6′-dihydroxy-3-oxo-3H-spiro[isobenzofuran-1,9′-xanthene]-5-carboxamide) by competitive Wee1 inhibitors.

Chain of GST-tagged-Wee1 kinase (P30291 whole entry): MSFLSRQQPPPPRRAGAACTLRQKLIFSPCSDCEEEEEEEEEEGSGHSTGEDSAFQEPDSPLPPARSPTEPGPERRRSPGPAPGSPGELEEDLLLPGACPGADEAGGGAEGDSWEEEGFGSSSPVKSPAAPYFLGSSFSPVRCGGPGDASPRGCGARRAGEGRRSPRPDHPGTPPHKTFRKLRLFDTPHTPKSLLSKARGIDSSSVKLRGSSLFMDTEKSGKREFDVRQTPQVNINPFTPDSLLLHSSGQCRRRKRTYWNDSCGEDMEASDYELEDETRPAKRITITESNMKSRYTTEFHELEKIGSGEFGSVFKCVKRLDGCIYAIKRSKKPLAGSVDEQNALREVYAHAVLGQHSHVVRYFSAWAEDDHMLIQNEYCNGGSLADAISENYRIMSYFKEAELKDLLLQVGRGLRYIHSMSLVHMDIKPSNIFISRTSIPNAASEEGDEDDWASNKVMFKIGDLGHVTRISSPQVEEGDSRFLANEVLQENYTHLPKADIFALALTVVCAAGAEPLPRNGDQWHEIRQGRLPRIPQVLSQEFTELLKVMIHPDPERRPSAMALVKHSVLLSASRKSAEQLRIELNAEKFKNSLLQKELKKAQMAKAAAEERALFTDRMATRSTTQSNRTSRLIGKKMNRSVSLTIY

Ki [nM] | Compound
0.2 | C=Cn1cc(-c2nn(-c3c(Cl)cccc3Cl)c(=O)c3cnc(Nc4ccc(N5CCN(C)CC5)cc4)nc23)cn1 [Example 201, 6-(2,6-dichlorophenyl)-8-(1-ethenyl-1H-pyrazol-4-yl)-2-{[4-(4-methylpiperazin-1-yl)phenyl]amino}pyrimido[4,5-d]pyridazin-5(6H)-one]
0.3 | CCNCCn1cc(-c2nn(-c3c(Cl)cccc3Cl)c(=O)c3cnc(Nc4ccc(N5CCN(C)CC5)cc4)nc23)cn1 [Example 202, 6-(2,6-dichlorophenyl)-8-{1-[2-(ethylamino)ethyl]-1H-pyrazol-4-yl}-2-{[4-(4-methylpiperazin-1-yl)phenyl]amino}pyrimido[4,5-d]pyridazin-5(6H)-one]
0.2 | CN1CCN(c2ccc(Nc3ncc4c(=O)n(-c5c(Cl)cccc5Cl)nc(-c5cncn5C)c4n3)cc2)CC1 [Example 203, 6-(2,6-dichlorophenyl)-8-(1-methyl-1H-imidazol-5-yl)-2-{[4-(4-methylpiperazin-1-yl)phenyl]amino}pyrimido[4,5-d]pyridazin-5(6H)-one]
2 | CN(C)Cc1ccc(Nc2ncc3c(=O)n(-c4ccccc4Cl)nc(-c4ccccc4)c3n2)cc1 [Example 204, 6-(2-chlorophenyl)-2-({4-[(dimethylamino)methyl]phenyl}amino)-8-phenylpyrimido[4,5-d]pyridazin-5(6H)-one]
0.2 | Cc1cc(Nc2ncc3c(=O)n(-c4ccccc4Cl)nc(-c4ccccc4)c3n2)ccc1N1CCN(C(C)C)CC1 [Example 205, 6-(2-chlorophenyl)-2-({3-methyl-4-[4-(propan-2-yl)piperazin-1-yl]phenyl}amino)-8-phenylpyrimido[4,5-d]pyridazin-5(6H)-one]
0.2 | Cc1cc(Nc2ncc3c(=O)n(-c4ccccc4Cl)nc(-c4ccccc4)c3n2)ccc1N1CCCN(C(C)C)CC1 [Example 206, 6-(2-chlorophenyl)-2-({3-methyl-4-[4-(propan-2-yl)-1,4-diazepan-1-yl]phenyl}amino)-8-phenylpyrimido[4,5-d]pyridazin-5(6H)-one]
0.1 | COc1cc(Nc2ncc3c(=O)n(-c4ccccc4Cl)nc(-c4ccccc4)c3n2)ccc1N1CCN(C(C)C)CC1 [Example 207, 6-(2-chlorophenyl)-2-({3-methoxy-4-[4-(propan-2-yl)piperazin-1-yl]phenyl}amino)-8-phenylpyrimido[4,5-d]pyridazin-5(6H)-one]
2 | Cc1ccccc1-n1nc(-c2cccs2)c2nc(Nc3ccc(CN(C)C)cc3)ncc2c1=O [Example 208, 2-({4-[(dimethylamino)methyl]phenyl}amino)-6-(2-methylphenyl)-8-(thiophen-2-yl)pyrimido[4,5-d]pyridazin-5(6H)-one]
0.8 | CN(C)Cc1ccc(Nc2ncc3c(=O)n(-c4ccccc4Cl)nc(-c4cccs4)c3n2)cc1 [Example 209, 6-(2-chlorophenyl)-2-({4-[(dimethylamino)methyl]phenyl}amino)-8-(thiophen-2-yl)pyrimido[4,5-d]pyridazin-5(6H)-one]
33 | C=CCn1nc(-c2cccs2)c2nc(Nc3ccc(CN(C)C)cc3)ncc2c1=O [Example 210, 2-({4-[(dimethylamino)methyl]phenyl}amino)-6-(prop-2-en-1-yl)-8-(thiophen-2-yl)pyrimido[4,5-d]pyridazin-5(6H)-one]
0.6 | CNCCn1cc(-c2nn(-c3c(Cl)cccc3Cl)c(=O)c3cnc(Nc4ccc(N5CCN(C)CC5)cc4)nc23)cn1 [Example 211, 6-(2,6-dichlorophenyl)-8-{1-[2-(methylamino)ethyl]-1H-pyrazol-4-yl}-2-{[4-(4-methylpiperazin-1-yl)phenyl]amino}pyrimido[4,5-d]pyridazin-5(6H)-one]
0.6 | CN(C)CCn1cc(-c2nn(-c3c(Cl)cccc3Cl)c(=O)c3cnc(Nc4ccc(N5CCN(C)CC5)cc4)nc23)cn1 [Example 212, 6-(2,6-dichlorophenyl)-8-{1-[2-(dimethylamino)ethyl]-1H-pyrazol-4-yl}-2-{[4-(4-methylpiperazin-1-yl)phenyl]amino}pyrimido[4,5-d]pyridazin-5(6H)-one]
0.6 | CN1CCN(c2ccc(Nc3ncc4c(=O)n(-c5c(Cl)cccc5Cl)nc(-c5cnn(CCN6CCCCC6)c5)c4n3)cc2)CC1 [Example 213, 6-(2,6-dichlorophenyl)-2-{[4-(4-methylpiperazin-1-yl)phenyl]amino}-8-{1-[2-(piperidin-1-yl)ethyl]-1H-pyrazol-4-yl}pyrimido[4,5-d]pyridazin-5(6H)-one]
0.4 | CN1CCN(CCn2cc(-c3nn(-c4c(Cl)cccc4Cl)c(=O)c4cnc(Nc5ccc(N6CCN(C)CC6)cc5)nc34)cn2)CC1 [Example 214, 6-(2,6-dichlorophenyl)-8-{1-[2-(4-methylpiperazin-1-yl)ethyl]-1H-pyrazol-4-yl}-2-{[4-(4-methylpiperazin-1-yl)phenyl]amino}pyrimido[4,5-d]pyridazin-5(6H)-one]
0.2 | CN1CCN(Cc2cccc(-c3nn(-c4c(Cl)cccc4Cl)c(=O)c4cnc(Nc5ccc(N6CCN(C)CC6)cc5)nc34)c2)CC1 [Example 215, 6-(2,6-dichlorophenyl)-8-{3-[(4-methylpiperazin-1-yl)methyl]phenyl}-2-{[4-(4-methylpiperazin-1-yl)phenyl]amino}pyrimido[4,5-d]pyridazin-5(6H)-one]
0.1 | CN1CCN(c2ccc(Nc3ncc4c(=O)n(-c5c(Cl)cccc5Cl)nc(-c5cccc(C(=O)N6CCC6)c5)c4n3)cc2)CC1 [Example 216, 8-[3-(azetidin-1-ylcarbonyl)phenyl]-6-(2,6-dichlorophenyl)-2-{[4-(4-methylpiperazin-1-yl)phenyl]amino}pyrimido[4,5-d]pyridazin-5(6H)-one]
0.1 | O=c1c2cnc(Nc3ccc4c(c3)CNCC4)nc2c(-c2ccccn2)nn1-c1c(Cl)cccc1Cl [Example 217, 6-(2,6-dichlorophenyl)-8-(pyridin-2-yl)-2-(1,2,3,4-tetrahydroisoquinolin-7-ylamino)pyrimido[4,5-d]pyridazin-5(6H)-one]
480 | Nc1ccc(N2CCN(c3ncc4c(=O)n(-c5ccncc5)nc(-c5ccccn5)c4n3)CC2)cc1 [Example 218, 2-(4-(4-aminophenyl)piperazin-1-yl)-8-(pyridin-2-yl)-6-(pyridin-4-yl)pyridazino[4,5-d]pyrimidin-5(6H)-one]
0.1 | CC(=O)c1cc(-c2nn(-c3c(Cl)cccc3Cl)c(=O)c3cnc(Nc4ccc(N5CCN(C)CC5)cc4)nc23)ccn1 [Example 219, 8-(2-acetylpyridin-4-yl)-6-(2,6-dichlorophenyl)-2-{[4-(4-methylpiperazin-1-yl)phenyl]amino}pyrimido[4,5-d]pyridazin-5(6H)-one]
0.4 | O=c1c2cnc(Nc3ccc(N4CCNCC4)cc3)nc2c(-c2cnccn2)nn1-c1c(Cl)cccc1Cl [Example 220, 6-(2,6-dichlorophenyl)-2-{[4-(piperazin-1-yl)phenyl]amino}-8-(pyrazin-2-yl)pyrimido[4,5-d]pyridazin-5(6H)-one]
0.2 | O=c1c2cnc(Nc3ccc4c(c3)CNCC43CC3)nc2c(-c2ccccn2)nn1-c1c(Cl)cccc1Cl [Example 221, 6-(2,6-dichlorophenyl)-2-(2′,3′-dihydro-1′H-spiro[cyclopropane-1,4′-isoquinolin]-7′-ylamino)-8-(pyridin-2-yl)pyrimido[4,5-d]pyridazin-5(6H)-one]
0.2 | COC(=O)c1cc(-c2nn(-c3c(Cl)cccc3Cl)c(=O)c3cnc(Nc4ccc(N5CCN(C)CC5)cc4)nc23)ccn1 [Example 222, methyl 4-[6-(2,6-dichlorophenyl)-2-{[4-(4-methylpiperazin-1-yl)phenyl]amino}-5-oxo-5,6-dihydropyrimido[4,5-d]pyridazin-8-yl]pyridine-2-carboxylate]
0.2 | Cc1cc(Nc2ncc3c(=O)n(-c4c(Cl)cccc4Cl)nc(-c4ccccn4)c3n2)ccc1N1CCCN(C)CC1 [Example 223]
0.07 | O=c1c2cnc(Nc3ccc4c(c3)CNCC4)nc2c(-c2ccncc2)nn1-c1c(Cl)cccc1Cl [Example 224, 6-(2,6-dichlorophenyl)-8-(pyridin-4-yl)-2-(1,2,3,4-tetrahydroisoquinolin-7-ylamino)pyrimido[4,5-d]pyridazin-5(6H)-one]
0.3 | CN1CCN(c2ccc(Nc3ncc4c(=O)n(-c5c(Cl)cccc5Cl)nc(-c5ccnc(C(=O)N6CCCC6)c5)c4n3)cc2)CC1 [Example 225, 6-(2,6-dichlorophenyl)-2-{[4-(4-methylpiperazin-1-yl)phenyl]amino}-8-[2-(pyrrolidin-1-ylcarbonyl)pyridin-4-yl]pyrimido[4,5-d]pyridazin-5(6H)-one]
< 1 | O=c1c2cnc(Nc3ccc(N4CCNCC4)cc3)nc2c(-c2cccc(F)n2)nn1-c1c(Cl)cccc1Cl [Example 226, 6-(2,6-dichlorophenyl)-8-(6-fluoropyridin-2-yl)-2-{[4-(piperazin-1-yl)phenyl]amino}pyrimido[4,5-d]pyridazin-5(6H)-one]
< 1 | CN1Cc2cc(Nc3ncc4c(=O)n(-c5c(Cl)cccc5Cl)nc(-c5cccc(F)n5)c4n3)ccc2C2(CC2)C1 [Example 227, 6-(2,6-dichlorophenyl)-8-(6-fluoropyridin-2-yl)-2-[(2′-methyl-2′,3′-dihydro-1′H-spiro[cyclopropane-1,4′-isoquinolin]-7′-yl)amino]pyrimido[4,5-d]pyridazin-5(6H)-one]
3 | C=CCn1nc(-c2ccco2)c2nc(Nc3ccc(N4CCCN(C(C)C)CC4)c(C)c3)ncc2c1=O [Example 228, 8-(furan-2-yl)-2-({3-methyl-4-[4-(propan-2-yl)-1,4-diazepan-1-yl]phenyl}amino)-6-(prop-2-en-1-yl)pyrimido[4,5-d]pyridazin-5(6H)-one]
0.2 | O=C1CCCN1c1ccc(-c2nn(-c3c(Cl)cccc3Cl)c(=O)c3cnc(Nc4ccc(N5CCNCC5)cc4)nc23)cc1 [Example 229, 6-(2,6-dichlorophenyl)-8-[4-(2-oxopyrrolidin-1-yl)phenyl]-2-{[4-(piperazin-1-yl)phenyl]amino}pyrimido[4,5-d]pyridazin-5(6H)-one]
